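1) Cells in 96-well plates. 2) Compound, 48 h, 5 concentrations. 3) Linear interpolation between surrounding doses. 4) Unreached endpoint = highest concentration. GI50: concentration for 50% inhibition of growth.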 Active and inactive are the calls of the source. Cut-off read from the data, not from the text of the source: active = GI50 up to about 1.1 µM and inactive = higher.
How the values were obtained:
Assay in all cases: NCI anticancer screen, dose series, 48 h
HOP-92 = test system: HOP-92
U-251 = test system: U-251
RPMI-8226 = test system: RPMI-8226
NCI-H23 = test system: NCI-H23
TK-10 = test system: TK-10
SK-OV-3 = test system: SK-OV-3
Hs-578T = test system: Hs-578T
MOLT-4 = test system: MOLT-4
NCI-H226 = test system: NCI-H226
Malme-3M = test system: Malme-3M
HCC 2998 = test system: HCC 2998
UACC-62 = test system: UACC-62
SR = test system: SR
ACHN = test system: ACHN
HCT-15 = test system: HCT-15
SF-539 = test system: SF-539
COLO 205 = test system: COLO 205
HT-29 = test system: HT-29
MDA-N = test system: MDA-N

SMILES	GI50 (HOP-92)	GI50 (U-251)	GI50 (RPMI-8226)	GI50 (NCI-H23)	GI50 (TK-10)	GI50 (SK-OV-3)	GI50 (Hs-578T)	GI50 (MOLT-4)	GI50 (NCI-H226)	GI50 (Malme-3M)	GI50 (HCC 2998)	GI50 (UACC-62)	GI50 (SR)	GI50 (ACHN)	GI50 (HCT-15) [µM]	GI50 (SF-539)	GI50 (COLO 205)	GI50 (HT-29)	GI50 (MDA-N)
O=C(O)/C(=C/C(=O)c1ccc(Cl)cc1)NNc1ccc([N+](=O)[O-])cc1[N+](=O)[O-]	22.9 µM (inactive)	47.9 µM (inactive)	28.5 µM (inactive)	44.1 µM (inactive)	57.5 µM (inactive)	35.6 µM (inactive)	31.2 µM (inactive)	42 µM (inactive)	23.7 µM (inactive)	30.5 µM (inactive)	59.8 µM (inactive)	38.7 µM (inactive)	50.9 µM (inactive)	31.8 µM (inactive)	48.3	35.3 µM (inactive)	> 100 µM (inactive)	64.1 µM (inactive)	–
CC12CCC(/C(=N/c3ccc([N+](=O)[O-])cc3)C1=O)C2(C)C (configuration not stated)	–	24.9 µM (inactive)	20.1 µM (inactive)	31.6 µM (inactive)	16.9 µM (inactive)	28.4 µM (inactive)	–	–	> 100 µM (inactive)	13.9 µM (inactive)	17.4 µM (inactive)	> 100 µM (inactive)	22.5 µM (inactive)	> 100 µM (inactive)	24.6	18.2 µM (inactive)	19.4 µM (inactive)	21 µM (inactive)	–
C#CCOC(=O)C=[N+]=[N-]	> 10 µM (inactive)	> 10 µM (inactive)	> 10 µM (inactive)	> 10 µM (inactive)	–	> 10 µM (inactive)	–	> 10 µM (inactive)	> 10 µM (inactive)	> 10 µM (inactive)	–	> 10 µM (inactive)	> 10 µM (inactive)	> 10 µM (inactive)	> 10	> 10 µM (inactive)	–	> 10 µM (inactive)	> 10 µM (inactive)
O=C1OC(CS(=O)(=O)c2ccccc2)CC1O (configuration not stated)	–	> 100 µM (inactive)	> 100 µM (inactive)	> 100 µM (inactive)	> 100 µM (inactive)	> 100 µM (inactive)	–	> 100 µM (inactive)	> 100 µM (inactive)	22.6 µM (inactive)	> 100 µM (inactive)	41 µM (inactive)	> 100 µM (inactive)	> 100 µM (inactive)	> 100	> 100 µM (inactive)	> 100 µM (inactive)	> 100 µM (inactive)	> 100 µM (inactive)
O=C(c1ccc2ccccc2c1)C1S(=O)(=O)OCCOS1(=O)=O	–	> 100 µM (inactive)	> 100 µM (inactive)	> 100 µM (inactive)	> 100 µM (inactive)	–	–	> 100 µM (inactive)	–	> 100 µM (inactive)	> 100 µM (inactive)	–	> 100 µM (inactive)	> 100 µM (inactive)	> 100	–	> 100 µM (inactive)	> 100 µM (inactive)	> 100 µM (inactive)
CC(C)(C)OC(=O)N(CCCN)CCCCN	> 100 µM (inactive)	> 100 µM (inactive)	> 100 µM (inactive)	> 100 µM (inactive)	> 100 µM (inactive)	> 100 µM (inactive)	> 100 µM (inactive)	> 100 µM (inactive)	> 100 µM (inactive)	–	> 100 µM (inactive)	> 100 µM (inactive)	> 100 µM (inactive)	> 100 µM (inactive)	> 100	> 100 µM (inactive)	> 100 µM (inactive)	> 100 µM (inactive)	–
CC1CC(=O)C(CC(=O)O)[C@H]1C(C(=O)C(=O)Nc1cc(Cl)ccc1Cl)[N+](=O)[O-] (some centres not stated)	> 100 µM (inactive)	> 100 µM (inactive)	> 100 µM (inactive)	–	> 100 µM (inactive)	> 100 µM (inactive)	–	–	> 100 µM (inactive)	–	> 100 µM (inactive)	> 100 µM (inactive)	> 100 µM (inactive)	> 100 µM (inactive)	> 100	> 100 µM (inactive)	> 100 µM (inactive)	> 100 µM (inactive)	–
CC(=O)c1nc2ccccc2n1CC(=O)c1ccc([N+](=O)[O-])cc1	–	4.38 µM (inactive)	20.1 µM (inactive)	31.3 µM (inactive)	42.5 µM (inactive)	31.2 µM (inactive)	6.68 µM (inactive)	5.52 µM (inactive)	21.5 µM (inactive)	11.6 µM (inactive)	–	10 µM (inactive)	7.45 µM (inactive)	–	42.3	22.3 µM (inactive)	34.8 µM (inactive)	15.2 µM (inactive)	–
CCOc1cc2c(OCc3ccccc3)cc3c4cc(OC)c(OC)cc4c[n+](C)c3c2cc1OC	0.361 µM (active)	0.601 µM (active)	2.06 µM (inactive)	2.73 µM (inactive)	10.3 µM (inactive)	3.02 µM (inactive)	–	0.818 µM (active)	1.5 µM (inactive)	0.986 µM (active)	1.57 µM (inactive)	1.27 µM (inactive)	0.631 µM (active)	19.4 µM (inactive)	59.6	1.3 µM (inactive)	0.259 µM (active)	2.66 µM (inactive)	0.857 µM (active)

— ChEMBL document CHEMBL1201862, “PubChem BioAssay data set” (2004)
